We go through 26 compounds from patent US20220089609A1, “SUBSTITUTED QUINAZOLINONE DERIVATIVES AND THEIR USE AS POSITIVE ALLOSTERIC MODULATORS OF MGLUR4” (DOMAIN THERAPEUTICS, priority 2018, published 2022).

Data set [1] addresses T1, human mGluR4 (hmGluR4) (Homo sapiens, UniProt Q14833).
T1 construct: expressed in transfected cells; host or cells: HEK-293 cells, transient co-transfection by electroporation
Kind of data set: Calcium assay EC50 determination, positive allosteric modulator activity on hmGluR4 transiently over-expressed in HEK-293 cells. It counts as cell-based. Conditions: PAM mode with EC20 glutamate; hmGluR4 in HEK-293 cells; intracellular calcium (Fluo4AM); read-out: mGluR4 positive allosteric modulator activity, half maximal effective concentration (EC50). Put shortly: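 HEK-293 cells transiently co-transfected with hmGluR4, chimeric G protein and glutamate transporters; Fluo4AM calcium read (ex 485/em 525 nm) on FLIPR Tetra. Compound alone 10 min for agonism, then EC20 glutamate with 3 min recording for PAM activity, versus buffer or EC20 glutamate basal.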
A general note: A change in cytosolic calcium serves as a functional read-out for many receptors and channels.

Structures are written as SMILES. Values joined by “and” are separate entries in the source; they are usually repeats but may differ in a detail not shown here. Equal values may be shown once. Where only a bound is given, the exact number is not on record here.

The term melting point denotes the temperature of the solid-liquid transition.

T1 sequence (Q14833 33-912): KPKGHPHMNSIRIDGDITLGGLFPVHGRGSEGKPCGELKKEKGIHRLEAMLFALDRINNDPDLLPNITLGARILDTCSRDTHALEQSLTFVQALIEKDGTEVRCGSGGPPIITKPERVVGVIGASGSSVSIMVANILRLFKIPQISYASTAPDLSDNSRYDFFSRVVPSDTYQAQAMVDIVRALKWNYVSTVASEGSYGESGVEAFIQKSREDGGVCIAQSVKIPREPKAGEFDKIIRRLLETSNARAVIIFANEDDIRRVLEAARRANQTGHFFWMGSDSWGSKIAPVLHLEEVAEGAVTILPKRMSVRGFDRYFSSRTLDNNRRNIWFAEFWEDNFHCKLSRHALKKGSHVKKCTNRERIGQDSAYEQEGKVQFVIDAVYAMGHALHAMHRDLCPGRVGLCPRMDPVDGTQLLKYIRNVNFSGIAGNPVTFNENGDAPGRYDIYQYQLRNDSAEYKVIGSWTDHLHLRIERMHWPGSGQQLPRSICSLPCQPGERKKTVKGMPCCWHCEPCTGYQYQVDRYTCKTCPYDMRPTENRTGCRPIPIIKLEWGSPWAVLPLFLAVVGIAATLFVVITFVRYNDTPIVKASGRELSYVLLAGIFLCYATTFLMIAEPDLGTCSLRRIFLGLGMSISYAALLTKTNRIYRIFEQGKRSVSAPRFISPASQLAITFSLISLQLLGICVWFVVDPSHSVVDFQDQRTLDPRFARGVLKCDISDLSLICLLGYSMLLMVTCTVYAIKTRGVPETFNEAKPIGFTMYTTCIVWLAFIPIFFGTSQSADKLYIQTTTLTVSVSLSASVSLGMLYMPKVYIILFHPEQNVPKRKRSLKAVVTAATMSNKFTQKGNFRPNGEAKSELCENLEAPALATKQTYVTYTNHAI

Turning to `Cc1cc(OC2CCC(=O)N(C)C2)cc2c(=O)[nH]c(-c3cc4sccc4cn3)nc12` (stereo not shown) [Compound 129, 8-Methyl-6-(1-methyl-6-oxo-piperidin-3-yloxy)-2-thieno[3,2-c]pyridin-6-yl-3H-quinazolin-4-one], the melting point was in the range of 90 to 110 °C. Further, in data set [1], the EC50 was no more than 100 nM.

For `COc1ccnc(-c2nc3ccc(OCCCc4ccncc4)cc3c(=O)[nH]2)c1.Cl` [Compound 7, 2-(4-methoxy-pyridin-2-yl)-6-(3-pyridin-4-yl-propoxy)-3H-quinazolin-4-one hydrochloride], the melting point was greater than 250 °C. The EC50 in data set [1] fell in the range of 1000 to 10000 nM.

As for `Cc1cc(CCN2CC3CCC(C2)O3)cc2c(=O)[nH]c(-c3cc(C(F)(F)F)ccn3)nc12.Cl` [Compound 162, 6-(2-(8-Oxa-3-azabicyclo[3.2.1]octan-3-yl)ethyl)-8-methyl-2-(4-(trifluoromethyl)pyridin-2-yl)quinazolin-4(3H)-one hydrochloride], the melting point is 160 to 170 °C. Also, the EC50 in data set [1] was no more than 100 nM.

Take `Cc1cc(CN2CCCC2)cc2c(=O)[nH]c(-c3cc4sccc4cn3)nc12.Cl` [Compound 139, 8-Methyl-6-(pyrrolidin-1-ylmethyl)-2-thieno[3,2-c]pyridin-6-yl-3H-quinazolin-4-one hydrochloride]: the melting point is greater than 250 °C. Also, the EC50 in data set [1] lay within 1000 to 10000 nM.

Regarding `COc1cnccc1CCCOc1ccc2nc(-c3cc4ccsc4cn3)[nH]c(=O)c2c1.Cl` [Compound 62, 6-[3-(3-Methoxy-pyridin-4-yl)-propoxy]-2-thieno[2,3-c]pyridin-5-yl-3H-quinazolin-4-one hydrochloride], the melting point lay within 250 to 251 °C. In addition, the EC50 in data set [1] was in the range of 100 to 1000 nM.

In turn, `Cc1cc(CCN2CC3(COC3)C2)cc2c(=O)[nH]c(-c3cc4ccsc4cn3)nc12` [Compound 145, 8-Methyl-6-[2-(2-oxa-6-azaspiro[3.3]heptan-6-yl)ethyl]-2-thieno[2,3-c]pyridin-5-yl-3H-quinazolin-4-one] returned a melting point of 220 to 225 °C. The EC50 in data set [1] lay in the range of 1000 to 10000 nM.

`CC(=O)N1CCC(COc2ccc3nc(-c4cc5ccsc5cn4)[nH]c(=O)c3c2)CC1` [Compound 47, 6-(1-Acetyl-piperidin-4-ylmethoxy)-2-thieno[2,3-c]pyridin-5-yl-3H-quinazolin-4-one] had a melting point greater than 250 °C. The EC50 in data set [1] was in the range of 100 to 1000 nM.

`Cc1cc(CCN2CCOC(C)(C)C2)cc2c(=O)[nH]c(-c3cc(C(F)(F)F)ccn3)nc12.Cl` [Compound 160, 6-(2-(2,2-dimethylmorpholino)ethyl)-8-methyl-2-(4-(trifluoromethyl)pyridin-2-yl)quinazolin-4(3H)-one hydrochloride] yielded a melting point of 106 to 116 °C. The EC50 in data set [1] is no more than 100 nM.

Regarding `COCCN(C)Cc1cc(C)c2nc(-c3cc4sccc4cn3)[nH]c(=O)c2c1.Cl` [Compound 151, 6-(((2-Methoxyethyl)(methyl)amino)methyl)-8-methyl-2-(thieno[3,2-c]pyridin-6-yl)quinazolin-4(3H)-one hydrochloride], the melting point is 205 to 215 °C. Further, the EC50 in data set [1] lay within 100 to 1000 nM.

Take `Cc1cc(O[C@@H](C)C2CCOCC2)cc2c(=O)[nH]c(-c3cc(C(F)(F)F)ccn3)nc12` [Compound 111-S, S-8-Methyl-6-[1-(tetrahydro-pyran-4-yl)-ethoxy]-2-(4-trifluoromethyl-pyridin-2-yl)-3H-quinazolin-4-one]: the melting point fell in the range of 120 to 132 °C. Besides, in data set [1], the EC50 was 100 to 1000 nM.

In turn, `COC1CCN(CCc2cc(C)c3nc(-c4cc(C(F)(F)F)ccn4)[nH]c(=O)c3c2)CC1.Cl` [Compound 166, 6-(2-(4-methoxypiperidin-1-yl)ethyl)-8-methyl-2-(4-(trifluoromethyl)pyridin-2-yl)quinazolin-4(3H)-one hydrochloride] yielded a melting point greater than 250 °C. Further, the EC50 in data set [1] lay in the range of 100 to 1000 nM.

Compound `Cc1cc(OC2CCC(=O)N(C)C2)cc2c(=O)[nH]c(-c3cc(C(F)(F)F)ccn3)nc12` (stereo not shown) [Compound 136, 8-Methyl-6-(1-methyl-6-oxo-piperidin-3-yloxy)-2-(4-trifluoromethyl-pyridin-2-yl)-3H-quinazolin-4-one] came in with a melting point greater than 250 °C. Further, the EC50 in data set [1] was no more than 100 nM.

`Cc1cc(CCN2C3CCC2COC3)cc2c(=O)[nH]c(-c3cc(C(F)(F)F)ccn3)nc12.Cl` [Compound 163, 6-(2-(3-oxa-8-azabicyclo[3.2.1]octan-8-yl)ethyl)-8-methyl-2-(4-(trifluoromethyl)pyridin-2-yl)quinazolin-4(3H)-one hydrochloride] showed a melting point of 200 to 250 °C. In addition, the EC50 in data set [1] is no more than 100 nM.

Consider `COCCOc1ccc2nc(-c3cc4sccc4cn3)[nH]c(=O)c2c1` [Compound 36, 6-(2-Methoxy-ethoxy)-2-thieno[3,2-c]pyridin-6-yl-3H-quinazolin-4-one], for which the melting point is 209 to 213 °C. In data set [1], the EC50 is greater than 10000 nM.

Consider `Cc1cc(CCN2CCOCC2)cc2c(=O)[nH]c(-c3cc4sccc4cn3)nc12.Cl` [Compound 123, 8-Methyl-6-(2-morpholin-4-yl-ethyl)-2-thieno[3,2-c]pyridin-6-yl-3H-quinazolin-4-one hydrochloride], for which the melting point was greater than 250 °C. Further, the EC50 in data set [1] was no more than 100 nM.

For `Cl.O=c1[nH]c(-c2cc(C(F)(F)F)ccn2)nc2c(Br)cc(CCN3CCOCC3)cc12` [Compound 159, 8-Bromo-6-(2-morpholinoethyl)-2-(4-(trifluoromethyl)pyridin-2-yl)quinazolin-4(3H)-one hydrochloride], the melting point was greater than 250 °C. Also, the EC50 in data set [1] was no more than 100 nM.

In turn, `Cl.O=c1[nH]c(-c2cc3ccsc3cn2)nc2ccc(OCCCc3cnccn3)cc12` [Compound 61, 6-(3-Pyrazin-2-yl-propoxy)-2-thieno[2,3-c]pyridin-5-yl-3H-quinazolin-4-one hydrochloride] showed a melting point of 230 to 240 °C. Further, the EC50 in data set [1] lay in the range of 100 to 1000 nM.

On to `Cc1cc(CCN2CCC(O)CC2)cc2c(=O)[nH]c(-c3cc(C(F)(F)F)ccn3)nc12.Cl` [Compound 164, 6-(2-(4-hydroxypiperidin-1-yl)ethyl)-8-methyl-2-(4-(trifluoromethyl)pyridin-2-yl)quinazolin-4(3H)-one hydrochloride], for which the melting point is 115 to 125 °C. The EC50 in data set [1] lay within 100 to 1000 nM.

Compound `COCCOc1ccc2nc(-c3cc4cccn4cn3)[nH]c(=O)c2c1` [Compound 34, 6-(2-Methoxy-ethoxy)-2-pyrrolo[1,2-c]pyrimidin-3-yl-3H-quinazolin-4-one] came in with a melting point of 181 to 187 °C. Besides, the EC50 in data set [1] is greater than 10000 nM.

As for `Cc1cc(CN2CCCC2)cc2c(=O)[nH]c(-c3cc4ccsc4cn3)nc12.Cl` [Compound 133, 8-Methyl-6-(pyrrolidin-1-ylmethyl)-2-thieno[2,3-c]pyridin-5-yl-3H-quinazolin-4-one hydrochloride], the melting point was greater than 250 °C. Also, in data set [1], the EC50 lay in the range of 1000 to 10000 nM.

The compound `Cc1cc(CN2CCS(=O)(=O)CC2)cc2c(=O)[nH]c(-c3cc4sccc4cn3)nc12` [Compound 150, 6-[(1,1-Dioxo-1,4-thiazinan-4-yl)methyl]-8-methyl-2-thieno[3,2-c]pyridin-6-yl-3H-quinazolin-4-one] returned a melting point of 245 to 250 °C. In addition, in data set [1], the EC50 was no more than 100 nM.

`Cc1cc(CCN2CCCOCC2)cc2c(=O)[nH]c(-c3cnc4ccsc4c3)nc12.Cl` [Compound 122, 8-Methyl-6-(2-[1,4]oxazepan-4-yl-ethyl)-2-thieno[3,2-b]pyridin-6-yl-3H-quinazolin-4-one hydrochloride] showed a melting point greater than 250 °C. Further, in data set [1], the EC50 was no more than 100 nM.

In turn, `Cc1cc(CN2CCCCC2)cc2c(=O)[nH]c(-c3cc4ccsc4cn3)nc12.Cl` [Compound 131, 8-Methyl-6-(1-piperidylmethyl)-2-thieno[2,3-c]pyridin-5-yl-3H-quinazolin-4-one hydrochloride] showed a melting point of 233 to 240 °C. Also, the EC50 in data set [1] lay in the range of 100 to 1000 nM.

`Cl.O=c1[nH]c(-c2cc(C(F)(F)F)ccn2)nc2ccc(OCCCc3ccncc3)cc12` [Compound 9, 6-(3-Pyridin-4-yl-propoxy)-2-(4-trifluoromethyl-pyridin-2-yl)-3H-quinazolin-4-one hydrochloride] had a melting point of 239 to 245 °C. Besides, the EC50 in data set [1] is 100 to 1000 nM and < 1000 nM.

Compound `COCCN(C)CCc1cc(C)c2nc(-c3cc4sccc4cn3)[nH]c(=O)c2c1.Cl` [Compound 148, 6-(2-((2-Methoxyethyl)(methyl)amino)ethyl)-8-methyl-2-(thieno[3,2-c]pyridin-6-yl)quinazolin-4(3H)-one hydrochloride] came in with a melting point of 149 to 162 °C. In data set [1], the EC50 fell in the range of 1000 to 10000 nM.

As for `Cc1cc(O[C@H]2CCN(C(=O)OCc3ccccc3)C2)cc2c(=O)[nH]c(-c3cc4sccc4cn3)nc12` [Compound 141, Benzyl (3S)-3-[(8-methyl-4-oxo-2-thieno[3,2-c]pyridin-6-yl-3H-quinazolin-6-yl)oxy]pyrrolidine-1-carboxylate], the melting point lay within 224 to 227 °C. In addition, the EC50 in data set [1] is 100 to 1000 nM.
